Results from PubChem BioAssay (NCI).
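Method: 48-hour compound exposure of cells in 96-well plates, five concentrations, linear interpolation of endpoints. At the GI50, growth is halved. TGI denotes the concentration required for complete inhibition of growth.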

Experiments:
Assay in all cases: inhibition of tumour cell growth, NCI panel, 48 h
NCI-H460 lung = test system: NCI-H460 lung
NCI-H522 lung = test system: NCI-H522 lung
NCI/ADR-RES ovarian = test system: NCI/ADR-RES ovarian
OVCAR-3 ovarian = test system: OVCAR-3 ovarian
OVCAR-4 ovarian = test system: OVCAR-4 ovarian
OVCAR-5 ovarian = test system: OVCAR-5 ovarian
OVCAR-8 ovarian = test system: OVCAR-8 ovarian
PC-3 prostate = test system: PC-3 prostate
RPMI-8226 leukemia = test system: RPMI-8226 leukemia
RXF 393 renal = test system: RXF 393 renal
SF-268 CNS = test system: SF-268 CNS
SF-295 CNS = test system: SF-295 CNS
SF-539 CNS = test system: SF-539 CNS
SK-MEL-2 melanoma = test system: SK-MEL-2 melanoma
SK-MEL-28 melanoma = test system: SK-MEL-28 melanoma
SK-MEL-5 melanoma = test system: SK-MEL-5 melanoma
SK-OV-3 ovarian = test system: SK-OV-3 ovarian
SN12C renal = test system: SN12C renal
SNB-19 CNS = test system: SNB-19 CNS
SNB-75 CNS = test system: SNB-75 CNS
SR leukemia = test system: SR leukemia
SW-620 colon = test system: SW-620 colon
T-47D breast = test system: T-47D breast
TK-10 renal = test system: TK-10 renal
U251 CNS = test system: U251 CNS
UACC-257 melanoma = test system: UACC-257 melanoma
UACC-62 melanoma = test system: UACC-62 melanoma
UO-31 renal = test system: UO-31 renal

Work on `Oc1ccccc1/C=N/Nc1ccc2ccccc2n1` yielded a GI50 (NCI-H460 lung) of 3.38 µM, a TGI (NCI-H460 lung) of 20.3 µM and a GI50 (NCI-H522 lung) of 2.36 µM. The TGI (NCI-H522 lung) was 9.41 µM, the GI50 (NCI/ADR-RES ovarian) was 1.95 µM and the TGI (NCI/ADR-RES ovarian) was greater than 100 µM. The GI50 (OVCAR-3 ovarian) was 2.82 µM, the TGI (OVCAR-3 ovarian) was 13.8 µM and the GI50 (OVCAR-4 ovarian) was 2.42 µM. It also gave a TGI (OVCAR-4 ovarian) of 18.6 µM, a GI50 (OVCAR-5 ovarian) of 8.31 µM and a TGI (OVCAR-5 ovarian) greater than 100 µM. It also gave a GI50 (OVCAR-8 ovarian) of 4.23 µM, a TGI (OVCAR-8 ovarian) of 59.1 µM and a GI50 (PC-3 prostate) of 4.5 µM. The TGI (PC-3 prostate) was greater than 100 µM, the GI50 (RPMI-8226 leukemia) was 3.45 µM and the TGI (RPMI-8226 leukemia) was greater than 100 µM. The GI50 (RXF 393 renal) was 18.3 µM, the TGI (RXF 393 renal) was greater than 100 µM and the GI50 (SF-268 CNS) was 3.09 µM. For the same compound, the TGI (SF-268 CNS) was 69.3 µM, the GI50 (SF-295 CNS) was 4.44 µM and the TGI (SF-295 CNS) was greater than 100 µM. The GI50 (SF-539 CNS) was 3.5 µM, the TGI (SF-539 CNS) was 59.4 µM and the GI50 (SK-MEL-2 melanoma) was 30 µM. The TGI (SK-MEL-2 melanoma) was greater than 100 µM, the GI50 (SK-MEL-28 melanoma) was 11.8 µM and the TGI (SK-MEL-28 melanoma) was greater than 100 µM. It also gave a GI50 (SK-MEL-5 melanoma) of 4.12 µM, a TGI (SK-MEL-5 melanoma) greater than 100 µM and a GI50 (SK-OV-3 ovarian) of 9.69 µM. For the same compound, the TGI (SK-OV-3 ovarian) was greater than 100 µM, the GI50 (SN12C renal) was 4.92 µM and the TGI (SN12C renal) was greater than 100 µM. It also gave a GI50 (SNB-19 CNS) of 5.39 µM, a TGI (SNB-19 CNS) greater than 100 µM and a GI50 (SNB-75 CNS) of 2.01 µM. It also gave a TGI (SNB-75 CNS) of 20.4 µM, a GI50 (SR leukemia) of 4.35 µM and a TGI (SR leukemia) greater than 100 µM. For the same compound, the GI50 (SW-620 colon) was 4.64 µM, the TGI (SW-620 colon) was greater than 100 µM and the GI50 (T-47D breast) was 3.83 µM. It also gave a TGI (T-47D breast) greater than 100 µM, a GI50 (TK-10 renal) of 7.69 µM and a TGI (TK-10 renal) of 77.5 µM. For the same compound, the GI50 (U251 CNS) was 4.23 µM, the TGI (U251 CNS) was 31.5 µM and the GI50 (UACC-257 melanoma) was 3.14 µM. For the same compound, the TGI (UACC-257 melanoma) was 9.57 µM, the GI50 (UACC-62 melanoma) was 3.17 µM and the TGI (UACC-62 melanoma) was greater than 100 µM. For the same compound, the GI50 (UO-31 renal) was 1.17 µM and the TGI (UO-31 renal) was 35.6 µM.
